Test results as given in patent US6410594B1, “Substituted cyclopentane compounds useful as neuraminidase inhibitors” (Biocryst Pharmaceuticals, Inc., priority 1996, dated 2002).
pIC50: −log10 of the molar value. Counter-ions that a name gives are not always drawn.

Molecular target: H1N9 Influenza Neuraminidase (Influenza A virus, UniProt P03472)
Test: biochemical
Design: species or system influenza virus (H1N9 strain)
Settings: 10 min at 37° C.; read-out: Inhibition of H1N9 Influenza Neuraminidase IC50

H1N9 Influenza Neuraminidase, sequence (P03472 83-470 limits assumed): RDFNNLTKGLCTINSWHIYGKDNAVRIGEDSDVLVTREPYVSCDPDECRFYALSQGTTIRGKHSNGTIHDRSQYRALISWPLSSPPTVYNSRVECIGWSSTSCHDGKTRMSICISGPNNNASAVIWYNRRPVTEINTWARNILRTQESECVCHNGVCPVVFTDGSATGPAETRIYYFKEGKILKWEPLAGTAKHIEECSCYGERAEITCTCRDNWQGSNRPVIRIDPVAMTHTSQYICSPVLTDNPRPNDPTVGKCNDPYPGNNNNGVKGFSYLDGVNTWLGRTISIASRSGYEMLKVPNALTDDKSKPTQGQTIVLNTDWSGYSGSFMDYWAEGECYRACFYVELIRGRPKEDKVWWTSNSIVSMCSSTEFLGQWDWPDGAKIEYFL

SMILES	pIC50
CC(=O)NC[C@@H]1C[C@H](C(=O)O)C[C@H]1NC(=N)N (relative stereo) [Example 3, t-3-{[(Amino)(imino)methyl]amino}-c-4-[(methylcarbonylamino)methyl]-cyclopentan-r-carboxylic acid trifluoroacetic acid [1:1.25]]	3.94
N=C(N)NC[C@@H]1C[C@H](C(=O)O)C[C@H]1NC(=N)N (relative stereo) [Example 5, t-3-{[(Amino)(imino)methyl]amino}-c-4-{{[(amino)(imino)methyl]amino}methyl}cyclopentan-r-carboxylic acid dihydrochloride hydrate 2-propanol (5:10:5:2)]	3.55
CC(=O)NC(CO)[C@H]1C[C@@](O)(C(=O)O)C[C@@H]1NC(=N)N (single isomer, unassigned; isomer a) [Example 9, t-3-{[(Amino)(imino)methyl]amino}-t-1-hydroxy-c-4-[(2-hydroxymethyl)(1-methylcarbonyl-amino)ethyl]cyclopentan-r-carboxylic acid trifluoroacetic acid diethyl ether [20:15:2] (isomer A at C-6)]	3.22
CC(=O)NC(C(O)C(O)CO)[C@H]1CC(C(=O)O)C[C@@H]1N (single isomer, unassigned; isomer a) [Example 10, 3β-amino-4α-[(1-methylcarbonylamino)(2,3,4-trihydroxy)butyl]cyclopentancarboxylic acid trifluoroacetic acid (1:1) (isomer A at C-6)]	3.22
CC(=O)NC(C(O)C(O)CO)[C@H]1CC(C(=O)O)C[C@@H]1NC(=N)N (single isomer, unassigned; isomer a) [Example 12, 3β-{[(Amino)(imino)methyl]amino}-4α-[(1-methylcarbonylamino) (2,3,4-trihydroxy)butyl)butyl]-cyclonentancarboxylic acid trifluoroacetic acid (1:2) (isomer A at C-1, isomer A at C-6, isomer B at C-7)]	5.12

System: not given
Test: not given
Settings: not given

SMILES	melting point
CC(=O)NC(COCc1ccccc1)[C@H]1C[C@@](O)(C(=O)O)C[C@@H]1N (some centres unmarked) (as salt: ammonium)	37 to 39 °C
CC(=O)NC(CO)[C@H]1C[C@@](O)(C(=O)O)C[C@@H]1N (some centres unmarked) (as salt: ammonium)	83 to 85 °C
CCC=CC(NC(C)=O)[C@H]1CC(C(=O)O)C[C@@H]1NC(=N)N (some centres unmarked) (as salt: salt)	62 to 64 °C
CON(C)CCC(=O)C(NC(C)=O)[C@H]1CC(C(=O)O)C[C@@H]1NC(=N)N (some centres unmarked) (as salt: salt) [Example 20]	189 to 192 °C
CCCN(CCC)C(=O)C(NC(C)=O)[C@H]1C[C@@](O)(C(=O)O)C[C@@H]1NC(=N)N (some centres unmarked) (as salt: salt) [Example 23, t-3-{[(Amino)(imino)methyl]amino}-c-4-[(di-n-propylaminocarbonyl)(methylcarbonylamino)-methyl]-t-hydroxycyclpentan-r-carboxylic acid trifluoroacetic acid (4:5)]	153 to 155 °C
CC(=O)NC(C(O)C(O)CO)[C@H]1CC(C(=O)O)C[C@@H]1N (single isomer, unassigned) (as salt: salt)	58 to 62 °C
CCCN(CCC)C(=O)C(NC(C)=O)[C@H]1C[C@@](O)(C(=O)O)C[C@@H]1N (single isomer, unassigned) (as salt: salt)	168 to 170 °C
CCN(CC)C(=O)C(NC(C)=O)[C@H]1C[C@@H](C(=O)O)C[C@@H]1NC(=N)N (single isomer, unassigned) (as salt: trifluoroacetic acid salt)	> 110 °C (dec.)
CC(=O)NC(C(O)C(O)CO)[C@H]1CC(C(=O)O)C[C@@H]1NC(=N)N (single isomer, unassigned; isomer a) (as salt: salt) [Example 12, 3β-{[(Amino)(imino)methyl]amino}-4α-[(1-methylcarbonylamino) (2,3,4-trihydroxy)butyl)butyl]-cyclonentancarboxylic acid trifluoroacetic acid (1:2) (isomer A at C-1, isomer A at C-6, isomer B at C-7)]	76 to 80 °C
CC(=O)NC(COC(=O)C(F)(F)F)[C@H]1C[C@](O)(C(=O)O)C[C@@H]1NC(=N)N (single isomer, unassigned; isomer a) (as salt: salt) [Example 16, c-3-{[(Amino)(imino)methyl]amino}-t-1-hydroxy-t-4-[(1-methylcarbonylamino)(2-trifluoromethyl-carbonyloxy)ethyl]cyclopentan-r-carboxylic acid trifluoroacetic acid (4:1) (isomer A at C-6)]	148 to 160 °C
CC(=O)NC(C(O)C(O)CO)[C@H]1CC(C(=O)O)C[C@@H]1NC(=N)N (single isomer, unassigned; isomer b) (as salt: salt) [Example 13, 3β-{[(Amino)(imino)methyl]amino}-4α-[(1-methylcarbonylamino)(2,3,4-trihydroxy)butyl]-cyclopentancarboxylic acid trifluoroacetic acid (1:2) (isomer B at C-1, isomer A at C-6, isomer B at C-7)]	124 to 128 °C
CC(=O)NC(C(O)C(O)CO)[C@H]1CC(C(=O)O)C[C@@H]1NC(=N)N (single isomer, unassigned; isomer b) (as salt: salt) [Example 14, 3β-{[(Amino)(imino)methyl]amino}-4α-[(1-methylcarbonylamino)(2,3,4-trihydroxy)butyl]cyclo-pentancarboxylic acid trifluoroacetic acid (4:9) (isomer B at C-6, isomer A at C-1, C-7 and/or C-8)]	125 to 135 °C
CC(=O)NC(C(O)C(O)CO)[C@H]1CC(C(=O)O)C[C@@H]1NC(=N)N (single isomer, unassigned; isomer b) (as salt: salt) [Example 15, 3β-{[(Amino)(imino)methyl]amino}-4α-[(1-methylcarbonylamino)(2,3,4-trihydroxy)butyl]cyclo-pentancarboxylic acid trifluoroacetic acid (5:13) (isomer B at C-6, isomer B at C-1, C-7 and/or C-8)]	140 to 145 °C
CC(=O)NC(COC(=O)C(F)(F)F)[C@H]1C[C@](O)(C(=O)O)C[C@@H]1NC(=N)N (single isomer, unassigned; isomer b) (as salt: salt) [Example 17, c-3-{[(Amino)(imino)methyl]amino}-t-1-hydroxy-t-4-[(1-methylcarbonylamino)(2-trifluoromethyl-carbonyloxy)ethyl]cyclopentan-r-carboxylic acid trifluoroacetic acid (4:3) (isomer B at C-6)]	210 to 220 °C
CC(=O)NC(CO)[C@H]1CC(C(=O)[O-])C[C@@H]1NC(=N)N.[Na+] (single isomer, unassigned; isomer b) (hydrate or solvate) [Example 7, Sodium 3β-{[(amino)(imino)methyl]amino}-4α-[(2-hydroxy)(1-methylcarbonylamino)ethyl]-cyclopentan-r-carboxylate:diethylether:hydrate (12:4:3), isomer B]	65 °C
